Results published in ChEMBL document CHEMBL4325859, “Research advances on anticancer activities of matrine and its derivatives: An updated overview” (Eur J Med Chem, 2019).
Values after ≈ are worked out from the molar mass of the structure shown.

Tests used:
UMR108 [1] = experiment: Growth inhibition of rat UMR108 cells assessed as cell proliferation at 1 mg/ml after 48 hrs by MTT assay (reference value: 0.404 +/- 0.008%); type: functional; settings: UMR108, 48 h, read-out: Activity
BXPC-3 = experiment: Induction of apoptosis in human BxPC3 cells at 1.25 mg/ml by flow cytometry (reference value: 2.81%); type: functional
MCF7 [2] = experiment: Antiproliferative activity against human MCF7 cells after 48 hrs by MTT assay; type: functional, cell-based; settings: MCF7, 48 h
SAOS-2 [3] = experiment: Growth inhibition of human Saos2 cells after 48 hrs by MTT assay; type: functional, cell-based; settings: SAOS-2, 48 h
UMR108 [4] = experiment: Growth inhibition of rat UMR108 cells assessed as cell proliferation at 1.5 mg/ml after 24 hrs by MTT assay (reference value: 0.405 +/- 0.007%); type: functional; settings: UMR108, 24 h, read-out: Activity
UMR108 [5] = experiment: Growth inhibition of rat UMR108 cells assessed as cell proliferation at 0.5 mg/ml after 24 hrs by MTT assay (reference value: 0.405 +/- 0.007%); type: functional; settings: UMR108, 24 h, read-out: Activity
HT-29 [6] = experiment: Growth inhibition of human HT-29 cells at 4 ml/L after 36 hrs by MTT assay relative to control; type: functional
CCRF-CEM = experiment: Induction of apoptosis in human CCRF-CEM cells at antiproliferative IC50 after 72 hrs by Annexin V/propidium iodide staining based assay (reference value: 0.8%); type: functional
[7] = Growth inhibition of human GRC1 cells at 0.8 g/L after 48 hrs by MTT assay relative to control; type: functional; settings: read-out: GI
PANC-1 = experiment: Antiproliferative activity against human PANC1 cells after 72 hrs by MTT assay; type: functional, cell-based; settings: PANC-1, 72 h
[8] = Growth inhibition of human GRC1 cells at 0.5 g/L after 48 hrs by MTT assay relative to control; type: functional; settings: read-out: GI
A549 = experiment: Antiproliferative activity against human A549 cells at 1.5 g/L after 12 to 48 hrs by MTT assay relative to control; type: functional
HT-29 [9] = experiment: Growth inhibition of human HT-29 cells at 16 ml/L after 36 hrs by MTT assay relative to control; type: functional
Bel-7402 = experiment: Antiproliferative activity against human Bel7402 cells after 48 hrs by MTT assay; type: functional, cell-based; settings: Bel-7402, 48 h
HT-29 [10] = experiment: Synergistic growth inhibition of human HT-29 cells at 0.5 mg/ml cotreated with 2.5 ug/ml irinotecan by MTT assay relative to control; type: functional
D341 cell line [11] = experiment: Growth inhibition of human D341 cells at 0.5 mg/ml after 72 hrs by CCK8 assay relative to control; type: functional; settings: D341, 72 h, read-out: GI
HT-29 [12] = experiment: Growth inhibition of human HT-29 cells at 32 ml/L after 48 hrs by MTT assay relative to control; type: functional
[13] = Growth inhibition of human GRC1 cells at 1 g/L after 24 hrs by MTT assay relative to control; type: functional; settings: read-out: GI
HT-29 [14] = experiment: Growth inhibition of human HT-29 cells at 2 mg/ml by MTT assay relative to control; type: functional; settings: read-out: GI
SAOS-2 [15] = experiment: Growth inhibition of human Saos2 cells at 3.2 mg/ml after 48 hrs by MTT assay relative to control; type: functional; settings: SAOS-2, 48 h, read-out: GI
K562 = experiment: Antiproliferative activity against human K562 cells after 72 hrs by MTT assay; type: functional, cell-based; settings: K562, 72 h
M21 = experiment: Induction of apoptosis in human M21 cells at 0.8 mg/ml after 48 hrs by Annexin V-FITC/propidium iodide staining based flow cytometry relative to control; type: functional
D341 cell line [16] = experiment: Growth inhibition of human D341 cells at 2 mg/ml after 72 hrs by CCK8 assay relative to control; type: functional; settings: D341, 72 h, read-out: GI
MCF7 [17] = experiment: Antiproliferative activity against human MCF7 cells after 72 hrs relative to control; type: functional
SAOS-2 [18] = experiment: Growth inhibition of human Saos2 cells at 0.8 mg/ml after 48 hrs by MTT assay relative to control; type: functional; settings: SAOS-2, 48 h, read-out: GI
MCF7 [19] = experiment: Antiproliferative activity against human MCF7 cells after 24 hrs relative to control; type: functional
HOS = experiment: Growth inhibition of human HOS cells at 0.8 mg/ml after 48 hrs by MTT assay relative to control; type: functional; settings: read-out: GI
KYSE-150 cell line = experiment: Antiproliferative activity against human KYSE-150 cells assessed as cell viability at 1.5 mg/ml after 24 hrs by MTT assay relative to control; type: functional; settings: KYSE-150, 24 h, read-out: Activity
MM1.S = experiment: Growth inhibition of human MM1S cells at […] after 24 hrs relative to control; type: functional; settings: read-out: GI
RPMI-8226 = experiment: Induction of apoptosis in human RPMI8226 cells at 500 mg/L after 48 hrs by Annexin V/propidium iodide staining based flow cytometry (reference value: 3.02 +/- 1.19%); type: functional
HT-29 [20] = experiment: Growth inhibition of human HT-29 cells at 32 ml/L after 36 hrs by MTT assay relative to control; type: functional
HT-29 [21] = experiment: Growth inhibition of human HT-29 cells at 8 ml/L after 24 hrs by MTT assay relative to control; type: functional
HT-29 [22] = experiment: Synergistic growth inhibition of human HT-29 cells at 0.25 mg/ml cotreated with 1.25 ug/ml irinotecan by MTT assay relative to control; type: functional
HT-29 [23] = experiment: Growth inhibition of human HT-29 cells at 16 mg/ml after 48 hrs by MTT assay relative to control; type: functional; settings: HT-29, 48 h, read-out: GI
NB-4 = experiment: Induction of apoptosis in human NB4 cells after 24 hrs by Annexin V-FITC/propidium iodide staining based flow cytometry relative to control; type: functional
C-33-A = experiment: Antiproliferative activity against human C33A cells after 48 hrs by CCK8 assay; type: functional, cell-based
RD = experiment: Induction of apoptosis in human RD cells at 0.5 mg/ml after 24 hrs by Annexin V-FITC/propidium iodide staining based flow cytometry relative to control; type: functional
UMR108 [24] = experiment: Growth inhibition of rat UMR108 cells assessed as cell proliferation at 1 mg/ml after 24 hrs by MTT assay (reference value: 0.405 +/- 0.007%); type: functional; settings: UMR108, 24 h, read-out: Activity
[25] = Growth inhibition of human GRC1 cells at 1.5 g/L after 96 hrs by MTT assay relative to control; type: functional; settings: read-out: GI
LoVo = experiment: Antiproliferative activity against human LoVo cells after 48 hrs by MTT assay; type: functional, cell-based
HepG2 = experiment: Induction of apoptosis in human HepG2 cells at 0.5 mg/ml by Annexin V-FITC/propidium iodide staining based flow cytometry (reference value: 0.14%); type: functional
[26] = Antiproliferative activity against human 95-D cells at 2 g/L after 48 hrs by MTT assay relative to control; type: functional
[27] = Antiproliferative activity against human GBC-SD cells assessed as cell survival at 1 mmol/L up to 72 hrs by MTT assay (reference value: 100%); type: functional; settings: read-out: Survival
5637 = experiment: Antiproliferative activity against human 5637 cells after 48 hrs by CCK8 assay; type: functional, cell-based; settings: Homo sapiens, 5637, 48 h

Compound: O=C1CCC[C@@H]2[C@H]3CCCN4CCC[C@@H](CN12)[C@@H]34 [MATRINE]
- growth at 1000 µg/mL (UMR108 [1]): 0.249%
- Activity (BXPC-3): 33.67%
- IC50 (MCF7 [2]): 721 µg/mL (≈ 2900 µM)
- IC50 (SAOS-2 [3]): 4.27 mM
- growth at 1500 µg/mL (UMR108 [4]): 0.245%
- growth at 500 µg/mL (UMR108 [5]): 0.324%
- growth inhibition (GI) (HT-29 [6]): 42.48%
- Activity (CCRF-CEM): 5.4%
- inhibition of growth at 800 µg/mL [7]: 23.1%
- IC50 (PANC-1): 3.66 mM
- inhibition of growth at 500 µg/mL [8]: 12.3%
- Activity (A549): 30%
- growth inhibition (GI) (HT-29 [9]): 68.29%
- IC50 (Bel-7402): 3.22 mM
- growth inhibition (GI) (HT-29 [10]): 57.25%
- inhibition of growth at 500 µg/mL (D341 cell line [11]): 12.7%
- growth inhibition (GI) (HT-29 [12]): 84.2%
- inhibition of growth at 1000 µg/mL [13]: 23.6%
- inhibition of growth at 2000 µg/mL (HT-29 [14]): 52.9%
- inhibition of growth at 3200 µg/mL (SAOS-2 [15]): 70%
- IC50 (K562): 1.77 mM
- Activity (M21): 40.3%
- inhibition of growth at 2000 µg/mL (D341 cell line [16]): 59.3%
- Activity (MCF7 [17]): 10.86 - 70.23%
- inhibition of growth at 800 µg/mL (SAOS-2 [18]): 10%
- Activity (MCF7 [19]): 6.01 - 37.01%
- inhibition of growth at 800 µg/mL (HOS): 10%
- viability at 1500 µg/mL (KYSE-150 cell line): 64%
- inhibition of growth at 2 g/mL (MM1.S): 73%
- Activity (RPMI-8226): 9.75%
- growth inhibition (GI) (HT-29 [20]): 77.14%
- growth inhibition (GI) (HT-29 [21]): 45.96%
- growth inhibition (GI) (HT-29 [22]): 31.08%
- inhibition of growth at 16000 µg/mL (HT-29 [23]): 75.8%
- Activity (NB-4): 33%
- IC50 (C-33-A): 5.92 mM
- Activity (RD): 22.8%
- growth at 1000 µg/mL (UMR108 [24]): 0.298%
- inhibition of growth at 1500 µg/mL [25]: 60.2%
- IC50 (LoVo): 2.97 mM
- Activity (HepG2): 28.91%
- Activity [26]: 20%
- viability at 1000 µM [27]: 72.1%
- IC50 5637: 4.48 mM
